Assay results published in ChEMBL document CHEMBL1147043, “Comparative metabolism of radiolabeled muraglitazar in animals and humans by quantitative and qualitative metabolite profiling” (Drug Metab Dispos, 2007).

Tests used:
[1] = Fecal excretion of compound in bile duct-cannulated orally dosed Sprague-Dawley rat within 24 hrs; format: ADME, organism-based; conditions: faeces, po, read-out: Activity
[2] = Bile excretion of compound in bile duct-cannulated orally dosed cynomolgus monkey within 48 hrs; format: ADME, organism-based, Macaca fascicularis; conditions: po, read-out: Activity
[3] = Biodistribution in orally dosed human urine assessed as 17-hydroxy muraglitazar level by LC/MS analysis; format: ADME, organism-based; conditions: in vivo, po
Rattus norvegicus [4] = test: Biodistribution in orally dosed Sprague-Dawley rat urine assessed as muraglitazar glucuronide level by LC/MS analysis; format: ADME, organism-based; conditions: in vivo, po
[5] = Biodistribution in orally dosed human feces assessed as O-demethyl muraglitazar level by LC/MS analysis; format: ADME, organism-based; conditions: in vivo, po
[6] = Metabolic stability in cynomolgus monkey hepatocytes assessed as O-Dealkyl muraglitazar level by LC/MS analysis relative to control; format: ADME, cell-based, Macaca fascicularis, Hepatocyte
[7] = Metabolic stability in cynomolgus monkey hepatocytes assessed as 8-hydroxy-O-demethyl muraglitazar level by LC/MS analysis relative to control; format: ADME, cell-based, Macaca fascicularis, Hepatocyte
[8] = Metabolic stability in cynomolgus monkey hepatocytes assessed as di-oxygenated muraglitazar level by LC/MS analysis relative to control; format: ADME, cell-based, Macaca fascicularis, Hepatocyte
Hepatocyte [9] = test: Metabolic stability in human hepatocytes assessed as 17-hydroxy-O-demethyl muraglitazar level by LC/MS analysis relative to control; format: ADME, cell-based
Hepatocyte [10] = test: Metabolic stability in human hepatocytes assessed as 12,17-dihydroxy muraglitazar level by LC/MS analysis relative to control; format: ADME, cell-based
Hepatocyte [11] = test: Metabolic stability in human hepatocytes assessed as 8-hydroxy muraglitazar level by LC/MS analysis relative to control; format: ADME, cell-based
Hepatocyte [12] = test: Metabolic stability in human hepatocytes assessed as muraglitazar glucuronide level by LC/MS analysis relative to control; format: ADME, cell-based
[13] = Biodistribution in orally dosed cynomolgus monkey feces assessed as muraglitazar glucuronide level by LC/MS analysis; format: ADME, organism-based, Macaca fascicularis; conditions: in vivo, po
[14] = Biodistribution in orally dosed human feces assessed as muraglitazar glucuronide level by LC/MS analysis; format: ADME, organism-based; conditions: in vivo, po
[15] = Biodistribution in orally dosed Beagle dog feces assessed as 9-hydroxy muraglitazar level by LC/MS analysis; format: ADME, organism-based, Canis lupus familiaris; conditions: in vivo, po
Rattus norvegicus [16] = test: Biodistribution in orally dosed Sprague-Dawley rat urine assessed as O-dealkyl-O-demethyl muraglitazar level by LC/MS analysis; format: ADME, organism-based; conditions: in vivo, po
[17] = Biodistribution in orally dosed cynomolgus monkey feces assessed as O-dealkyl-O-demethyl muraglitazar level by LC/MS analysis; format: ADME, organism-based, Macaca fascicularis; conditions: in vivo, po
[18] = Metabolic stability in CD1 mouse hepatocytes assessed as 9-hydroxy-O-demethyl muraglitazar level by LC/MS analysis relative to control; format: ADME, cell-based, Hepatocyte
[19] = Metabolic stability in CD1 mouse hepatocytes assessed as 12,17-dihydroxy muraglitazar level by LC/MS analysis relative to control; format: ADME, cell-based, Hepatocyte
[20] = Metabolic stability in CD1 mouse hepatocytes assessed as hydroxyl muraglitazar glucuronide level by LC/MS analysis relative to control; format: ADME, cell-based, Hepatocyte
Hepatocyte [21] = test: Metabolic stability in Sprague-Dawley rat hepatocytes assessed as 17-hydroxy muraglitazar level by LC/MS analysis relative to control; format: ADME, cell-based
Hepatocyte [22] = test: Metabolic stability in Sprague-Dawley rat hepatocytes assessed as muraglitazar glucuronide level by LC/MS analysis relative to control; format: ADME, cell-based
Hepatocyte [23] = test: Metabolic stability in Sprague-Dawley rat hepatocytes assessed as O-demethyl muraglitazar glucuronide level by LC/MS analysis relative to control; format: ADME, cell-based
Rattus norvegicus [24] = test: Biodistribution in orally dosed Sprague-Dawley rat urine assessed as 8-hydroxy muraglitazar level by LC/MS analysis; format: ADME, organism-based; conditions: in vivo, po
[25] = Biodistribution in orally dosed human urine assessed as 8-hydroxy muraglitazar level by LC/MS analysis; format: ADME, organism-based; conditions: in vivo, po
[26] = Biodistribution in orally dosed Beagle dog feces assessed as imide derivative of muraglitazar level by LC/MS analysis; format: ADME, organism-based, Canis lupus familiaris; conditions: in vivo, po
Rattus norvegicus [27] = test: Biodistribution in orally dosed Sprague-Dawley rat urine assessed as 12-hydroxy muraglitazar level by LC/MS analysis; format: ADME, organism-based; conditions: in vivo, po
[28] = Drug concentration in human bile assessed as recovery of radioactive dose at 20 mg, po after 3 to 8 hrs; format: ADME, organism-based; conditions: in vivo
[29] = Drug concentration in bile duct-cannulated CD1 mouse bile at 1 mg/kg, po after 24 hrs; format: ADME, organism-based; parameters: dose 1 mg/kg, route oral; conditions: in vivo
[30] = Fecal excretion rate in orally dosed Sprague-Dawley rat within 48 hrs; format: ADME, organism-based; conditions: faeces, po, read-out: Activity
[31] = Fecal excretion rate in orally dosed Beagle dog within 48 hrs; format: ADME, organism-based, Canis lupus familiaris; conditions: faeces, po, read-out: Activity
Rattus norvegicus [32] = test: Cmax in Sprague-Dawley rat at 10 mg/kg, po after 24 hrs; format: ADME, organism-based; parameters: dose 10 mg/kg, route oral; conditions: in vivo
Plasma [33] = test: Biodistribution in orally dosed Beagle dog plasma assessed as muraglitazar glucuronide level after 1 hr by LC/MS analysis; format: ADME, organism-based, Canis lupus familiaris; conditions: in vivo, po
Plasma [34] = test: Biodistribution in orally dosed Beagle dog plasma assessed as O-demethyl muraglitazar level after 4 hrs by LC/MS analysis; format: ADME, organism-based, Canis lupus familiaris; conditions: in vivo, po
Plasma [35] = test: Biodistribution in orally dosed cynomolgus monkey plasma assessed as O-demethyl muraglitazar level after 1 hr by LC/MS analysis; format: ADME, organism-based, Macaca fascicularis; conditions: in vivo, po
Plasma [36] = test: Biodistribution in orally dosed human plasma assessed as O-demethyl muraglitazar level after 1 hr by LC/MS analysis; format: ADME, organism-based; conditions: in vivo, po
Rattus norvegicus [37] = test: Biodistribution in orally dosed Sprague-Dawley rat urine assessed as 12-hydroxy-O-demethyl muraglitazar level by LC/MS analysis; format: ADME, organism-based; conditions: in vivo, po
Plasma [38] = test: Biodistribution in orally dosed Sprague-Dawley rat plasma assessed as 12-dihydroxy muraglitazar level after 12 hrs by LC/MS analysis; format: ADME, organism-based; conditions: in vivo, po
Plasma [39] = test: Biodistribution in orally dosed cynomolgus monkey plasma assessed as 12-dihydroxy muraglitazar level after 1 hr by LC/MS analysis; format: ADME, organism-based, Macaca fascicularis; conditions: in vivo, po
Plasma [40] = test: Biodistribution in orally dosed cynomolgus monkey plasma assessed as muraglitazar 12-carboxylic acid level after 12 hrs by LC/MS analysis; format: ADME, organism-based, Macaca fascicularis; conditions: in vivo, po
Plasma [41] = test: Biodistribution in orally dosed Beagle dog plasma assessed as O-demethyl muraglitazar glucuronide level after 4 hrs by LC/MS analysis; format: ADME, organism-based, Canis lupus familiaris; conditions: in vivo, po
Plasma [42] = test: Biodistribution in orally dosed cynomolgus monkey plasma assessed as O-demethyl muraglitazar glucuronide level after 1 hr by LC/MS analysis; format: ADME, organism-based, Macaca fascicularis; conditions: in vivo, po
Plasma [43] = test: Biodistribution in orally dosed human plasma assessed as O-Dealkyl muraglitazar level after 12 hrs by LC/MS analysis; format: ADME, organism-based; conditions: in vivo, po
Plasma [44] = test: Biodistribution in orally dosed Beagle dog plasma assessed as 12-hydroxy-O-demethyl muraglitazar level after 4 hrs by LC/MS analysis; format: ADME, organism-based, Canis lupus familiaris; conditions: in vivo, po
Plasma [45] = test: Biodistribution in orally dosed cynomolgus monkey plasma assessed as 12-hydroxy-O-demethyl muraglitazar level after 4 hrs by LC/MS analysis; format: ADME, organism-based, Macaca fascicularis; conditions: in vivo, po
Plasma [46] = test: Biodistribution in orally dosed cynomolgus monkey plasma assessed as 12-hydroxy-O-demethyl muraglitazar level after 12 hrs by LC/MS analysis; format: ADME, organism-based, Macaca fascicularis; conditions: in vivo, po
[47] = Biodistribution in orally dosed cynomolgus monkey feces assessed as 17-hydroxy-O-demethyl muraglitazar level by LC/MS analysis; format: ADME, organism-based, Macaca fascicularis; conditions: in vivo, po
[48] = Biodistribution in orally dosed cynomolgus monkey urine assessed as 9-hydroxy-O-demethyl muraglitazar level by LC/MS analysis; format: ADME, organism-based, Macaca fascicularis; conditions: in vivo, po
[49] = Half life in cynomolgus monkey at 1.9 mg/kg, po after 24 hrs; format: ADME, organism-based, Macaca fascicularis; parameters: dose 1.9 mg/kg, route oral; conditions: in vivo
[50] = Tmax in human at 10 mg, po after 72 hrs; format: ADME, organism-based; conditions: in vivo
Homo sapiens = test: AUC (0 to T) in human at 10 mg, po after 72 hrs; format: ADME, organism-based, Plasma; parameters: dose 10 mg, time < 72 hr, route oral; conditions: in vivo
[51] = Biodistribution in orally dosed cynomolgus monkey urine assessed as 8-hydroxy-O-demethyl muraglitazar level by LC/MS analysis; format: ADME, organism-based, Macaca fascicularis; conditions: in vivo, po
Hepatocyte [52] = test: Metabolic stability in human hepatocytes assessed as O-demethyl muraglitazar glucuronide level by LC/MS analysis relative to control; format: ADME, cell-based
Hepatocyte [53] = test: Metabolic stability in human hepatocytes assessed as di-oxygenated muraglitazar level by LC/MS analysis relative to control; format: ADME, cell-based

## COc1ccc(OC(=O)N(CC(=O)O)Cc2ccc(OCCc3nc(-c4ccccc4)oc3C)cc2)cc1 [MURAGLITAZAR]
[1]
  dose excreted at 24 h: < 1%
[2]
  dose excreted at 48 h: 36%
[3]
  Drug uptake: 0.07%
Rattus norvegicus [4]
  Drug uptake: < 0.01%
[5]
  Drug uptake: 3.33%
[6]
  Drug uptake: 7.6%
[7]
  Drug uptake: < 0.2%
[8]
  Drug uptake: 1.3%
Hepatocyte [9]
  Drug uptake: 1.6%
Hepatocyte [10]
  Drug uptake: 0.2%
Hepatocyte [11]
  Drug uptake: < 0.2%
Hepatocyte [12]
  Drug uptake: 1.1%
[13]
  Drug uptake: 0.8%
[14]
  Drug uptake: 0.06%
[15]
  Drug uptake: 0.85%
Rattus norvegicus [16]
  Drug uptake: 0.21%
[17]
  Drug uptake: 0.4%
[18]
  Drug uptake: 1.2%
[19]
  Drug uptake: 0.8%
[20]
  Drug uptake: 2.7%
Hepatocyte [21]
  Drug uptake: 2%
Hepatocyte [22]
  Drug uptake: 0.5%
Hepatocyte [23]
  Drug uptake: < 0.2%
Rattus norvegicus [24]
  Drug uptake: < 0.01%
[25]
  Drug uptake: 0.03%
[26]
  Drug uptake: 0.89%
Rattus norvegicus [27]
  Drug uptake: 0.03%
[28]
  Drug uptake: 39.9%
[29]
  Drug uptake: 0.375 mgequiv/ml
[30]
  dose excreted at 48 h: 95%
[31]
  dose excreted at 48 h: 95%
Rattus norvegicus [32]
  Cmax: 13.5 ugequiv/ml
Plasma [33]
  Drug uptake: < 0.05%
Plasma [34]
  Drug uptake: 3%
Plasma [35]
  Drug uptake: 0.1%
Plasma [36]
  Drug uptake: 0.2%
Rattus norvegicus [37]
  Drug uptake: 0.01%
Plasma [38]
  Drug uptake: 0.2%
Plasma [39]
  Drug uptake: 0.9%
Plasma [40]
  Drug uptake: 0.5%
Plasma [41]
  Drug uptake: 3%
Plasma [42]
  Drug uptake: 0.1%
Plasma [43]
  Drug uptake: 0.2%
Plasma [44]
  Drug uptake: 1%
Plasma [45]
  Drug uptake: 2.9%
Plasma [46]
  Drug uptake: 2.7%
[47]
  Drug uptake: 3.22%
[48]
  Drug uptake: 0.18%
[49]
  half-life: 1410 min
[50]
  Tmax: 1 h
Homo sapiens
  AUC: 9 ugequiv.h/ml
[51]
  Drug uptake: 0.08%
Hepatocyte [52]
  Drug uptake: < 0.2%
Hepatocyte [53]
  Drug uptake: 4.5%
